“Also recorded” adds a separate entry of the source. Like-named read-outs stand apart in the source and are kept apart here.
Assays:
physchem = type: physicochemical
Description: The solubility of CLB was determined in several individual vehicles. Briefly, a known amount of CLB drug, formulated as a powder (Sigma, St Louis, Mo.), was equilibrated in the respective solvent at RT over 1-4 hours. An aliquot was removed, filtered, and diluted in methanol (MeOH) before high-pressure liquid chromatography (HPLC) to determine solubility at predetermined times. Based on the CLB solubility in each vehicle, different solvents were mixed according to the cosolvency principle in an attempt to enhance the stable solubility (Spiegel A. J., Noseworthy M. N.: Use of nonaqueous solvents in parenteral products. J. PHARM. SCI. 52:917-927, 1963; Yalkowsky S. H., Roseman T. J.: Solubilization of drugs by cosolvents. In: Yalkowsky S. H. (Ed.): TECHNIQUES OF SOLUBILIZATION OF DRUGS. pp. 91-134. Marcel Dekker Inc., New York, N.Y. 1981).
An excess of CLB as a powder was added to DMSO, PEG, and PG at RT. Each mixture was placed in a dark environment and checked visually for up to 4 hours for evidence of solubilization. Samples of 1 ml were taken at various time intervals. The CLB concentration was then determined by HPLC after filtration through a 0.45 μm polytetrafluoroethylene (PTFE) membrane filter (Autovial®) fitted to a syringe assembly (Whatman Inc., Springfield Mill, Maidstone, Kent, UK).

[1] = type: physicochemical; conditions: RT
From the text: HPLC assay provides an accurate and sensitive detection system for low concentrations of CLB in solution, both protein-free mixtures and protein-containing fluids (i.e., blood plasma), utilizing absorbency detection in the ultraviolet (UV) spectrum. For the detection a wavelength of 254 nm was chosen on the basis of the inherent absorption maximum of the CLB molecule. The HPLC system was equipped with a Waters 717 plus AutoSampler (Waters, Milford, Mass.). The detector was a Waters Model 486 Tunable Absorbance Detector in sequence with a Waters Millennium™ software package for HPLC (Waters, Milford, Mass.). The column used was a Whatman C-18 EQC […] 125A μBondapak 4.6×216 mm. […] The analytic system was based on previously established extraction and HPLC experience with retinoic acid and with the bifunctional DNA-alkylating drug busulfan (Napoli J L, Pramanik B C, Williams J B et al: Quantification of retinoic acid by gas-liquid chromatography-mass spectrometry: total versus all-trans-retinoic acid in human plasma. J LIPID RES. 26: 387-392, 1985; Chow D S-L, Bhagwatwar H P, Phadungpojna S, Andersson B S: Stability-indicating high-performance liquid chromatographic assay of busulfan in aqueous and plasma samples. J CHROMATOGR B, 704: 277-288, 1997). […]

[2] = Osmotic pressure measurement (micro-osmometer); type: physicochemical; conditions: CLB final concentration 1-5 mg/ml
Description: It is desirable that a parenteral formulation of a pharmacologically active agent be isosmotic with blood. A hypertonic delivery system can be utilized if the drug formulation is infused through an indwelling (central) venous catheter and gradually diluted in a large blood volume. Osmotic pressures were measured with a micro-osmometer model 3MOplus osmometer (Advanced Instruments Inc., Needham Heights, Mass.). The instrument was calibrated using Advans™ intrinsic calibration standards (Advanced Instruments Inc.) in the range of 500-2000 mOsm/kg. The test solution was placed in a disposable cuvette, and the osmotic pressure readings were recorded. Triplicate measurements were carried out for each vehicle (without CLB), and six measurements were done with drug added. A two-tailed t-test was used to compare the differences in osmotic pressures of various solvent vehicles with and without the addition of CLB (Mann H. B., Whitney D. R.: On a test whether one of two random variables is stochastically larger than the other. ANN. MATH. STATIST. 18: 50-60, 1947).

erythrocytes = assay: Hemolysis studies in vitro; type: cell-based; conditions: drug concentrations of 100 μg/ml or more
From the text: The procedure of Parthasarathy et al. was used to examine the hemolytic potential of a few selected formulations of the present invention, and the LD50 (concentration that results in 50% lethality or destruction of a population) values of the most optimal formulation was constructed as previously described (Parthasarathy R, Sacks P G, Harris D, et al: Interaction of liposome-associated all-trans-retinoic acid with squamous carcinoma cells. CANCER CHEMOTHER. PHARMACOL. 34:527-34, 1994). Briefly, heparinized blood was mixed with an equal volume of Alsever's solution. This mixture was washed twice in phosphate-buffered saline (PBS), and a 10% (volume per volume, v/v) erythrocyte/PBS solution was then prepared and mixed with increasing amounts of the solvent (prototype EtOH/lipid solvent vehicle and NS) with or without addition of CLB. These resulting mixtures were incubated for 4 hours at 37° C. At the end of the incubation, the cells were pelleted at 10,000×g in an Eppendorf micro-centrifuge, and after washing twice in NS, the pellet was resuspended and lysed using distilled water. The release of hemoglobin in the supernatant (i.e., hemolysis) was determined spectrophotometrically at a wavelength of 550 nm. […]
The hemolytic potential of the formulations (EtOH/lipid/CLB/NS) were evaluated as described. […]

[3] = test system: HL-60 human myeloid leukemia cell line; assay: In vitro clonogenic cytotoxicity assay, HL-60; type: cell-based; conditions: acetone positive control
Description: (§1) The cytotoxic potential of selected solvent systems with and without CLB was determined against the two human myeloid leukemia cell lines (HL-60) (Gallagher R. Collins S, Trujillo et al: Characterization of the continuously differentiating myeloid cell line (HL-60) from a patient with acute promyelocytic leukemia. BLOOD 54:254-68, 1979) and human myeloid leukemia cell line (KBM-7/B5) (Andersson B S, Beran M, Pathak S, et al: Ph-positive chronic leukemia with near-haploid conversion in vivo and establishment of a continuously growing cell line with similar cytogenetic pattern. CANCER GENETICS AND CYTOGENET 24:335-43, 1987; Andersson B S, Collins V P, Kurzrock R, et al: KBM-7; human myeloid leukemia cell line with double Philadelphia chromosomes but lacking normal BCR and c-ABL transcripts. LEUKEMIA, 9:2100-2108, 1995). Briefly, HL-60 or KBM-7/B5 cells were suspended at a density of 5,000 cells per ml in Iscove's modified Dulbecco medium (IMDM) supplemented with 20% fetal bovine serum (FBS) and 0.3% agar as viscous support. […] Clones of>50 cells were counted under an inverted phase contrast microscope, and survival curves were constructed as described (Andersson B S, Mroue M, Britten R A, Murray D: The role of DNA damage in the resistance of human chronic myeloid leukemia cells to cyclophosphamide analogs. CANCER RESEARCH 54:5394-5400, 1994).

[4] = test system: KBM-7/B5 human myeloid leukemia cell line; assay: In vitro clonogenic cytotoxicity assay, KBM-7/B5; type: cell-based; conditions: acetone positive control
Description: as §1

[5] = IV CLB pharmacology in rats; type: in vivo, Sprague-Dawley rats
From the text: Male Sprague-Dawley rats with a body weight of 250-300 g were used for the in vivo pharmacology experiments (Harlan-Sprague-Dawley, Houston, Tex.). The animals were allowed a minimum of 3-4 days after arrival to accommodate to the new environment and allowed free access to commercial feed and tap water prior to and during the experimentation period. The animals were housed in facilities that meet the requirements of the U.S. Department of Agriculture, (USDA), National Institute of Health (NIH), and Department of Health and Human Services (DHHS).
The CLB dose of 5 mg/kg BW was determined to be the highest dose that could be administered to the rats as an IV bolus injection without requiring anticonvulsant premedication.
The CLB was formulated in EtOH/lipid (prototype EtOH/lipid solvent vehicle) to a stock concentration of 100 mg/ml and then diluted with NS so the dose (5.0 mg/kg) could be injected in a tail vein in a volume of approximately 0.5 ml. The CLB concentrations of the formulation were confirmed by HPLC prior to all administrations. No anticonvulsant premedication for the rats in this experiment was used in order to avoid the possible induction of microsomal liver enzymes that could modify CLB metabolism. The animals were unanesthetized, being only physically restrained during the drug injection for the same reason.
(§2) Blood samples (0.5-1.0 ml) were drawn in heparinized tubes at selected time points prior to the drug infusion (“blank”), and from 5 min to 6 hours after drug injection for determination of CLB concentrations. The samples were obtained through cardiac puncture under light CO2 anesthesia in the rats and through a prepositioned cephalic vein catheter in the dogs. The blood was centrifuged at 1,000×g for 10 min, and the plasma was removed and stored at−80° C. until extracted and assayed by HPLC.

[6] = IV CLB pharmacology in beagle dogs; type: in vivo
Description: The CLB given to beagle dogs was prepared as above. The same general design of the experiment was used, except that the dogs received a maximum dose of 7.5 mg/kg BW through a cephalic vein catheter, and the drug was delivered under general anesthesia.
as §2

[7] = type: physicochemical
[8] = cited from earlier work

## O=C(O)CCCc1ccc(N(CCCl)CCCl)cc1 [CLB, 4-[Bis(2-chloroethyl)amino]benzenebutanoic acid]
physchem; DMSO, organic solvent or mixture, thermodynamic from solid, DMSO, RT, read-out: CLB solubility (maximum equilibrium concentration) in DMSO
  solubility: > 100 mg/mL
physchem; EtOH, organic solvent or mixture, thermodynamic from solid, EtOH, within 1 hour at RT, read-out: CLB solubility (maximum equilibrium concentration) in EtOH
  solubility at 1 h: > 100 mg/mL
physchem; NS, 5% dextrose in water, soybean lipid emulsion (Intralipid)
  CLB solubility in aqueous solvents: virtually insoluble
physchem; RT
  Solubilized CLB in PEG-400, PG, NS, 20% soybean lipid emulsion, 5% dextrose: did not yield any significant concentrations of solubilized drug
physchem; prototype EtOH/lipid solvent vehicle, aqueous with cosolvent or surfactant or cyclodextrin, thermodynamic from solid, EtOH/emulsified soybean oil vehicle, read-out: CLB solubility in prototype EtOH/lipid solvent vehicle
  solubility: ≥ 100 mg/mL
[1]; 100 mg/ml, prototype EtOH/lipid vehicle
  Time CLB stable at 100 mg/ml in EtOH/lipid solvent: more than 7 days
[1]; EtOH/lipid solvent system, HPLC
  Drug still intact at 7 days: > 95%
[2]
  Change of osmolarity of complete vehicle by addition of CLB: < 5%
erythrocytes
  CLB-dependent lysis: barely exceeded background
[3]
  Cytotoxic activity in the formulation vs CLB dissolved in acetone, HL-60: retained full cytotoxic activity
[4]
  Cytotoxic activity in the formulation vs CLB dissolved in acetone, KBM-7/B5: retained full cytotoxic activity
[5]; 5 mg/kg BW IV
  CLB plasma concentrations after IV injection, rats: detectable, cytotoxic CLB plasma concentrations; also recorded: for several hours remained in the cytotoxic range; also recorded: maintained for several hours
[5]; 5.0 mg/kg BW IV
  Tolerability of injection, rats: well tolerated; also recorded: well accepted
[5]; rats, IV bolus
  Highest dose as IV bolus without requiring anticonvulsant premedication: 5 mg/kg BW
[6]; 7.5 mg/kg BW IV
  CLB plasma concentrations after IV injection, beagles: detectable, cytotoxic CLB plasma concentrations; also recorded: for several hours remained in the cytotoxic range; also recorded: maintained for several hours
  Tolerability of injection, beagles: well accepted
[6]; 7.5 mg/kg BW IV, dogs
  Neurological effect, no premedication: generalized seizure; also recorded: caused seizures
[6]; 7.5 mg/kg BW IV, two dogs
  Neurological effect, premedicated with diphenylhydantoin: tolerated the CLB administration without any obvious neurological effects
[6]; dog, plasma, IV, this formulation, FIG. 7 beagle 7.5 mg/kg, read-out: Apparent terminal half-life
  half-life: ~1 h
[7]; DMSO
  CLB degradation in DMSO: started degrading within a few hours
[7]; DMSO, RT
  Time CLB stable in DMSO before significant degradation: at most 2 hours
[7]; EtOH/lipid diluted with infusion fluid, RT, listed as Chlorambucil
  Time formulation stable after mixing with infusion fluid: > 24 h
[7]; RT, over 24 hours, FIG. 1
  Stability (percent remaining) of infusion formulation: > 90%
[7]; primary stock diluted with NS to 1 mg/ml
  CLB recovered at 24 hours, diluted to 1 mg/ml: > 95%
[7]; primary stock diluted with NS to 5 mg/ml
  CLB recovered at 24 hours, diluted to 5 mg/ml: > 95%
[8]; oral, intermittent schedule, confusion, generalized seizures
  Dose at which dose-limiting neurological toxicity is manifested: ≥ 100 mg/m^2 BSA
[8]; taken by mouth
  Terminal half-life in blood: approximately 60 minutes
